Experimental data from patent US5789188A, “Tetracycline-efflux pump inhibitor screening methods” (priority 1996, dated 1998).
Converted amounts (≈) assume the structure as drawn. “Also recorded” adds a separate entry of the source. Like-named read-outs stand apart in the source and are kept apart here. Non-standard residues stand in square brackets, D forms with d. Residues, ends and D or L forms follow the SMILES beside them. Orn(N5-OH,N5-Ac) = CC(=O)N(O)CCC[C@H](N)C(=O)O

Key:
[1] = system: tetracycline efflux pump (strain KB4 or KB5); assay: Inhibition Assay, plate assay (agar with 5 ng/ml of tetracycline); as to Inhibition Assay response: key: ±: Possible positive; +: Weak positive; ++: Stronger positive; -: Negative; format: cell-based, E. coli; details: for Tetracycline Detection, amount detected in Inhibition plate assay: strain KB4 or KB5, spotted on plate; for response in the Inhibition Assay: 5 ng/ml of tetracycline
Description: (§1) To detect tetracyclines, a plate assay is developed that is similar to one described previously (11). Cells are grown in Luria Broth (adjusted with NaOH to pH 7.5) with 25 μg/ml of kanamycin to a cell density of 0.5 absorbance units (600 nm). A 25 ml sample of the culture is harvested by centrifugation and resuspended in 1 ml of broth. The cells are mixed with 25 ml of soft agar (1%, wt/vol) and poured onto 100 ml of LB (pH 7.5)+ kanamycin, within a 22 cm^2 NUNC plate (Corning). Samples are applied by spotting from 2 to 15 μl, or by applying a disc impregnated with a compound, and the plate is incubated for 3-4 hours at 37° C. The plates are overlaid with a solution containing 13.5 mg of 6-bromo-2-naphthyl-β-D-galactopyranoside side and 86.5 mg of fast blue RR (Sigma) dissolved in 2 ml of dimethylsulfoxide, to which 25 ml of soft agar is added. β-Galactosidase is detected by the presence of a purple spot.
Two assays are developed for detecting inhibitors of the tetA gene product (using strain KB5), or the tetK gene product (using strain KB4). In the Inhibition Assay, cells of strain KB4 or KB5 are treated as described in the tetracycline screen above, except that the agar medium contains 5 ng/ml of tetracycline. Alternatively a Liquid Assay is also developed. Cells are first grown in LB (pH 7.5). Then cells are shifted to medium containing 5 ng/ml of tetracycline, and tetracycline-containing samples are added to aliquots. Cells are then incubated and assayed as described for the Tetracycline Assay. […] However, the intracellular concentration is reduced in tetracycline resistant strains due to the action of the efflux pump, so more tetracycline would be required in the medium to accumulate sufficient tetracycline inside the cell to induce. The Inhibition Assay is designed to detect compounds that cause β-galactosidase induction in the presence of sub-inducing levels of tetracycline for a resistant strain.

strain KB3ind [2] = format: cell-based, E. coli; details: for response in the Tetracycline Assay (β-galactosidase induction): strain KB3ind, plate assay (plate or liquid assay)
Description: as §1

NK5031 (λStet158-50) = assay: Plate assay with control strain containing the cI wild type allele; format: cell-based, E. coli; details: 3 μl samples, up to 22.5 ng bleomycin, 150 ng mitomycin C or cinodine
strain KB4 [3] = assay: Induction in liquid culture, strain KB4; format: cell-based, E. coli; details: Escherichia coli, read-out: concentration for full induction of β-galactosidase
Description: (§2) Cells are added to tetracycline to the final concentration indicated as described in FIG. 7. The sensitive strain is the tetracycline screening organism KB3ind, which induces fully when grown in the presence of 5-10 ng/ml of tetracycline. In contrast, the strain containing the Tn10 element, conferring strong tetracycline resistance, induces fully when the concentration of tetracycline is above 1 μg/ml.
(§3) Alternatively, a liquid assay is also used. Cells are grown in LB (pH 7.5), and tetracycline-containing samples are added to aliquots when the density of the culture is 0.1 OD units. After 3-4 generations of the cells, each aliquot is measured for β-galactosidase activity as described (10, 12) and Miller Units (12) are determined. […] For both the plate and liquid assays, this strain is more sensitive than a previously reported screening organism (11).

[4] = system: strain MC1061 with plasmid pGG58; assay: microbe, parasite or virus in culture; details: Escherichia coli, read-out: tetracycline resistance
[5] = system: E. coli MC1061 containing pCBSal; assay: MIC (LD 90) of maximally induced tetA (plasmid pCBSal); format: cell-based; details: Escherichia coli, read-out: MIC (LD 90) of Maximally Induced tetA, pCBSal
Description: (§4) E. coli MC1061 containing either pGG57, pCBSal or pGG75 were used to determine the MIC (LD 90) for tetracycline as well as six tetracycline analogs. […] MIC studies were performed in the presence of 0.01 mM IPTG for E. coli MC1061 containing pGG57. […] All of these MIC studies were done in duplicate.

[6] = system: Tn10 derivative of strain KB3ind; assay: Induction in liquid culture, Tn10 strain; format: cell-based, E. coli; details: Escherichia coli, read-out: concentration for full induction of β-galactosidase, Tn10 strain, liquid culture
Description: as §2, §3

[7] = system: Tn10 derivative of KB3ind; assay: microbe, parasite or virus in culture; details: Escherichia coli, read-out: tetracycline resistance
strain KB4 [8] = assay: microbe, parasite or virus in culture; details: Escherichia coli, read-out: tetracycline resistance conferred
[9] = system: strains containing pCB258; assay: microbe, parasite or virus in culture; details: Escherichia coli
strain KB5 = assay: MIC of strain KB5; format: cell-based, E. coli; details: Escherichia coli
strain KB3ind [10] = assay: Tetracycline liquid assay (β-galactosidase, Miller Units); format: cell-based, E. coli; details: Escherichia coli
Description: as §3

[11] = system: E. coli MC1061 containing pGG75; assay: MIC (LD 90) of maximally induced tetC (plasmid pGG75); format: cell-based; details: Escherichia coli, read-out: MIC (LD 90) of Maximally Induced tetC, pGG75
Description: as §4

[12] = system: E. coli MC1061 containing pGG57; assay: microbe, parasite or virus in culture; format: cell-based; details: Escherichia coli
Description: as §4

strain KB4 or KB5 [13] = assay: Synergy Assay, plate assay (agar with 5 μg/ml of tetracycline); format: cell-based, E. coli; details: for response in the Synergy Assay: 5 μg/ml of tetracycline
Description: Two types of assays for pump inhibitors are designed using this type of screening organism. The first is a Synergy Assay, which determines the ability of a compound or composition to kill the organism in combination with tetracycline. […] In brief, in a Synergy Assay, the screening cells are treated as described above for the tetracycline assay, except that the agar medium contains 5 μg/ml of tetracycline which is near the MIC for the strains to be used in the screen. […] Alternatively, cells are treated as described above for the tetracycline liquid assay, except that cells are shifted to a medium containing 5 μg/ml of tetracycline.
(§5) In the Synergy Assay, cells are treated as above for the plate assay, except that agar medium contains 5 μg/ml of tetracycline, near the MIC for strain KB4 or KB5. […] Alternatively, cells are treated as above for the liquid assay, except that cells are shifted to medium containing 5 μg/ml of tetracycline.

strain KB3ind [14] = assay: Growth in LB medium with nocardamine, strain KB3ind; format: cell-based, E. coli; details: tetracycline-sensitive strain KB3ind, 0.5 μg/ml of tetracycline
Description: FIG. 10 (Parts A, B and C) illustrates the effect of nocardamine on the growth of tetracycline sensitive and resistant cells. Cells are grown in LB medium lacking tetracycline, as described in the text, and then aliquots are added to medium containing no tetracycline, or a sub-inhibitory concentration for the particular strain. Nocardamine (μg/ml) is present or absent as indicated. For strain KB3ind, the tetracycline-sensitive strain, the sub-inhibitory concentration of tetracycline is 0.5 μg/ml. For the Tn10 derivative of strain KB3ind, 20 μg/ml of tetracycline is the sub-inhibitory level. For strain KB4, the modestly tetracycline-resistant organism, 5 μg/ml of tetracycline is the sub-inhibitory concentration.

strain KB4 [15] = assay: Growth in LB medium with nocardamine, strain KB4; format: cell-based, E. coli; details: strain KB4, 5 μg/ml of tetracycline
Description: (§6) Cells are grown in LB medium lacking tetracycline, as described in the text, and then aliquots are added to medium containing no tetracycline, or a sub-inhibitory concentration for the particular strain. Nocardamine (μg/ml) is present or absent as indicated.

strain KB4 or KB5 [16] = assay: Synergy Assay, liquid assay (5 μg/ml of tetracycline); format: cell-based, E. coli; details: liquid culture
Description: Inhibitory activity is assayed in liquid culture by growing strain KB4 in medium lacking tetracycline and then transferring to medium containing 5 ng/ml of tetracycline, a sub-inducing level of tetracycline due to the action of the efflux pump. Nocardamine is also added as indicated. After 4 generations of growth, the specific activity of β-galactosidase is determined in Miller Units (10). […] Alternatively, aliquots of KB4 are transferred to a medium containing 5 μg/ml of tetracycline and the nocardamine concentration indicated.
as §5

[17] = system: Tn10 derivative of strain KB3ind; assay: Growth in LB medium with nocardamine, Tn10 strain; format: cell-based, E. coli; details: for effect on growth in combination with tetracycline: Tn10 strain, 20 μg/ml or 25 μg/ml of tetracycline; for effect on growth, tetracycline absent: no tetracycline in medium
Description: as §6
For Induction Assay response in this document: key: ±: Possible positive; +: Weak positive; ++: Stronger positive; -: Negative.

CO[C@@]12[C@H](COC(N)=O)C3=C(C(=O)C(C)=C(N)C3=O)N1C[C@@H]1N[C@@H]12 [Mitomycin]
Inhibition Assay response ([1]; disc on assay plate): - | Induction Assay response (strain KB3ind [2]): - | response in the Tetracycline Assay (β-galactosidase induction) (strain KB3ind [2]): No β-galactosidase is detected | β-galactosidase induction in control strain (cI wild type allele) (NK5031 (λStet158-50)): inducing β-galactosidase

CN(C)C1C(=O)C(C(N)=O)=C(O)C2(O)C(=O)C3=C(O)c4c(O)cccc4C(C)(O)C3CC12 (stereo not drawn) [Tetracycline]
EC (full induction) (strain KB4 [3]): 0.03 µg/mL | MIC [4]: 15 µg/mL (≈ 33.8 µM) | MIC [5]: 150 µg/mL (≈ 338 µM) | EC (full induction) [6]: > 1 µg/mL | MIC [7]: > 100 µg/mL | Tetracycline Detection, amount detected in Inhibition plate assay [1]: ≥ 1 ng | Tetracycline Detection, amount detected in Inhibition plate assay ([1]; listed as tetracycline): 1 ng | MIC (strain KB4 [8]): < 10 µg/mL | MIC ([9]; PCB258): 50 µg/mL (≈ 113 µM) | MIC ([9]; PCB258, read-out: tetracycline resistance conferred): 40 µg/mL (≈ 90 µM) | MIC (strain KB5): ~10 µg/mL | EC (full induction) (strain KB3ind [10]; liquid culture, read-out: concentration for full induction of β-galactosidase): 0.005 to 0.01 µg/mL | minimal effective concentration (strain KB3ind [10]; read-out: lowest concentration detected in liquid assay): 0.0001 µg/mL | response in the Tetracycline Assay (β-galactosidase induction) (strain KB3ind [2]): capable of detecting | MIC [11]: 100 µg/mL (≈ 225 µM) | MIC ([12]; read-out: MIC (LD 90) of Maximally Induced tetK, pGG57): 125 µg/mL (≈ 281 µM) | MIC ([12]; read-out: tetracycline resistance conferred): 25 µg/mL (≈ 56.3 µM)

C/C(=C/C(=O)N([O-])CCCC1NC(=O)CNC(=O)C(CO)NC(=O)C(CO)NC(=O)C(CCCN([O-])C(=O)/C=C(/C)CC(=O)O)NC(=O)C(CCCN([O-])C(=O)/C=C(\C)CC(=O)O)NC1=O)CC(=O)O.[Fe+3] (stereo not drawn) [ferrichromeA]
response in the Synergy Assay (strain KB4 or KB5 [13]): test positive | response in the Inhibition Assay ([1]; plate assay): test positive

CC(=O)N([O-])CCC[C@@H]1NC(=O)CNC(=O)CNC(=O)CNC(=O)[C@H](CCCN([O-])C(C)=O)NC(=O)[C@H](CCCN([O-])C(C)=O)NC1=O.[Fe+3] [ferrichrome] (cyclo(GGG[Orn(N5-OH,N5-Ac)][Orn(N5-OH,N5-Ac)][Orn(N5-OH,N5-Ac)]))
response in the Synergy Assay (strain KB4 or KB5 [13]): test positive | response in the Inhibition Assay ([1]; plate assay): test positive

CCCCc1ccc(C(=O)O)nc1 [fusaric acid]
response in the Synergy Assay (strain KB4 or KB5 [13]): do not test positive | response in the Inhibition Assay ([1]; plate assay): do not test positive

O=C1CCC(=O)N(O)CCCCCNC(=O)CCC(=O)N(O)CCCCCNC(=O)CCC(=O)N(O)CCCCCN1 [nocardamine]
effect on growth in combination with tetracycline (strain KB3ind [14]): affects the growth; also recorded: is affected | effect on growth in combination with tetracycline (strain KB4 [15]): severe growth inhibition | effect on β-galactosidase production / growth (strain KB4 or KB5 [16]): marked decrease in β-galactosidase; also recorded: growth inhibition | response in the Synergy Assay (strain KB4 or KB5 [13]): differential growth inhibition | response in the Synergy Assay (strain KB4 or KB5 [13]; listed as Nocardamine): detected | amount sufficient to detect activity in the Synergy Assay (strain KB4 or KB5 [13]; strains KB4 and KB5): One | response in the Inhibition Assay ([1]; plate assay): induction | response in the Inhibition Assay ([1]; plate assay, listed as Nocardamine): detected | amount sufficient to detect activity in the Inhibition Assay ([1]; plate assay, strains KB4 and KB5): One | response in the Tetracycline Assay (β-galactosidase induction) (strain KB3ind [2]): no response | effect on growth in combination with tetracycline [17]: severe growth inhibition; also recorded: inhibits growth | effect on growth in combination with tetracycline ([17]; listed as Nocardamine): inhibits the growth | effect on growth, tetracycline absent [17]: little or no effect | effect on growth, tetracycline absent ([17]; listed as Nocardamine): little effect

bleomycin
response in the Tetracycline Assay (β-galactosidase induction) (strain KB3ind [2]): No β-galactosidase is detected | β-galactosidase induction in control strain (cI wild type allele) (NK5031 (λStet158-50)): inducing β-galactosidase

cinodine
response in the Tetracycline Assay (β-galactosidase induction) (strain KB3ind [2]): No β-galactosidase is detected | β-galactosidase induction in control strain (cI wild type allele) (NK5031 (λStet158-50)): inducing β-galactosidase
